Several values for one entry are separate records, joined by “and”; a condition that tells them apart may be missing. Equal entries are not always repeated. Where two headings read alike, the source gives them in different places. Residues, ends and D or L forms follow the SMILES beside them. *: point of attachment. CoASCH2CO = CC(C)(COP(=O)(O)OP(=O)(O)OC[C@H]1O[C@@H](n2cnc3c(N)ncnc32)[C@H](O)[C@@H]1OP(=O)(O)O)[C@@H](O)C(=O)NCCC(=O)NCCSCC(=O)*
How the values were obtained:
p300 [1] = target: T1, p300 (Homo sapiens, UniProt Q09472); assay: HAT activity inhibition assay, p300, mixed histones as substrate; assay type: biochemical
T1 construct: Full length PCAF and p300 proteins were prepared and purified according to previously described methods; made in house
Method: (§1) Screening of the peptide CoA conjugate for inhibition of HAT activity of PCAF and p300 was carried out according to standard HAT assay procedures (Ogryzko et al., 1996; Yang et al., 1996; Schiltz et al., 1999) using commercially available mixed calf histone substrates. […] Full length PCAF and p300 proteins were prepared and purified according to previously described methods (Schiltz et al., 1999). HAT inhibition assay procedures were adapted from previously described methods (gryzko et al., 1996; Yang et al., 1996; Schiltz et al., 1999). Briefly, substrate concentrations were 10 μM acetyl-CoA (NEN, ^14C, 0.02 μCi/μL), 33 μg/mL mixed histones (Boehringer); buffer conditions-50 mM Tris-HCl (pH 8), 10 mM sodium butyrate 1 mM phenylmethyl sulfonyl fluoride, 1 mM dithiothreitol, 0.1 mM N,N,N′,N′-ethylenediamine tetraacetic acid and 10% v/v glycerol. Reactions employed purified recombinant p300 and PCAF (Schiltz et al., 1999) at concentrations of 6 nM and 27 nM, respectively. A range of at least 5 inhibitor concentrations were used. Assays were carried out in 0.5 mL plastic tubes at 30° C. and the reaction volumes were 30 μL. Reactions were initiated with the radioactive acetyl-CoA (4 μL) after allowing the enzyme/buffer/histone/inhibitor mixture to equilibrate at 30° C. for 10 min, and reactions quenched after 1 min with 7.5 μL 5×SDS gel load. Mixtures were run out on 15% SDSPAGE visualized with Coomassie blue, dried, and radioactivity quantified by phosphorimage analysis (Molecular Dynamics). In all cases, background acetylation (in the absence of enzyme) was subtracted from the total signal.

PCAF [2] = target: T2, PCAF (Homo sapiens, UniProt Q92831); assay: HAT activity inhibition assay, PCAF, mixed histones as substrate; assay type: biochemical; details: for IC50: [acetyl-CoA]=10 M, [mixed histones]=33 μg/mL, standard errors estimated ±20%
T2 construct: Full length PCAF and p300 proteins were prepared and purified according to previously described methods; made in house
Method: as §1

naked DNA transcription = assay: In vitro transcription from naked DNA template; assay type: biochemical; details: 10 μM inhibitor; average of 4 independent experiments
Method: (§4) FIG. 4B and C: Transcription from naked DNA and chromatin templates. DNA (28 ng) and freshly assembled chromatin templates (with an equivalent amount of DNA) were incubated with or without activator, Gal4-VP16 (30 ng) for 20 min at 30° C.; 25 ng of baculovirus expressed, highly purified p300 (full length) and 1.5 μM of acetyl-CoA were added as indicated. Following the addition of nuclear extract (source of general transcription factors) and NTPs, transcription reactions were incubated and processed as described.
Recombinant His6-tagged nucleosome assembly protein 1 (NAP1) and transcription activator Gal4-VP16 were expressed in E. coli and purified with nitrilloacetic acid-agarose (Qiagen) as specified by the manufacturer. […] In vitro transcription assays were carried out in 50 μL reaction mixtures containing either 28 ng of DNA or an equivalent amount of chromatin.
(A) Outline of the in vitro transcription protocol. (B) and (C) Transcription form naked DNA and chromatin templates. DNA (28 ng) and freshly assembled chromatin templates (with an equivalent amount of DNA) were incubated with or without activator, Gal4-VP16 (30 ng) for 20 min at 30°, 25 ng of baculovirus expressed, highly purified p300 (full length) and 1.5 μM of acetyl-CoA were added as indicated. […]

PCAF [3] = target: T2, PCAF; assay type: biochemical; details: nucleosomes as substrate, inhibitor 20 μM
Method: (§2) Full length PCAF and p300 proteins were prepared and purified according to previously described methods (Schiltz et al., 1999). HAT inhibition assay procedures were adapted from previously described methods (gryzko et al., 1996; Yang et al., 1996; Schiltz et al., 1999). […] Reactions employed purified recombinant p300 and PCAF (Schiltz et al., 1999) at concentrations of 6 nM and 27 nM, respectively. A range of at least 5 inhibitor concentrations were used. Assays were carried out in 0.5 mL plastic tubes at 30° C. and the reaction volumes were 30 μL. Reactions were initiated with the radioactive acetyl-CoA (4 μL) after allowing the enzyme/buffer/histone/inhibitor mixture to equilibrate at 30° C. for 10 min, and reactions quenched after 1 min with 7.5 μL 5×SDS gel load. Mixtures were run out on 15% SDSPAGE visualized with Coomassie blue, dried, and radioactivity quantified by phosphorimage analysis (Molecular Dynamics). In all cases, background acetylation (in the absence of enzyme) was subtracted from the total signal.
(§3) 3) FIG. 3. Assessment of p300 and PCAF HAT Activities in p300/PCAF Mixtures. (A) p300 and PCAF HAT activities with mixed histones as substrates.

p300 [4] = target: T1, p300; assay: HAT inhibition assay, p300, nucleosomes as substrate; assay type: biochemical; details: inhibitor 20 μM
Method: as §2, §3

[5] = test system: p300 and acetyl-CoA dependent transcription from chromatin template; assay: In vitro chromatin-template transcription dependent on p300 HAT activity; assay type: biochemical, human
Method: as §4
The chromatin template was reconstituted by incubation of purified proteins (HeLa core histones, NAP1 and rh TopoI) with a 5.4 kb plasmid (p20855G5MLC2AT) that contains a 690 bp promoter region (5 Gal4 binding sites and the adenovirus major late promoter with a G-less cassette) flanked on both sides by the 5 nucleosome positioning sequence from the sea urchin 55 rRNA gene (Cote et al., 1995). Assembled chromatin was structurally characterized by supercoiling and micrococcal nuclease (MNase) assay (data not shown).
Chromatin template for transcription studies were assembled on a ˜5.4 kb plasmid (p2085S G5MLC2AT) with purified human core histones, rh TpopI, and NAP1 as described (T. K. K. et al., manuscript in preparation). Prior to use in the transcription experiment, assembled, chromatin was subjected to supercoiling and Mnase assay. […]

[6] = [acetyl-CoA]=10 M, [mixed histones]=33 μg/mL, standard errors estimated ±20%, read-out: IC50 with p300
[7] = mixed histones, individual enzyme, inhibitor 20 μM

T1 sequence (Q09472 whole entry): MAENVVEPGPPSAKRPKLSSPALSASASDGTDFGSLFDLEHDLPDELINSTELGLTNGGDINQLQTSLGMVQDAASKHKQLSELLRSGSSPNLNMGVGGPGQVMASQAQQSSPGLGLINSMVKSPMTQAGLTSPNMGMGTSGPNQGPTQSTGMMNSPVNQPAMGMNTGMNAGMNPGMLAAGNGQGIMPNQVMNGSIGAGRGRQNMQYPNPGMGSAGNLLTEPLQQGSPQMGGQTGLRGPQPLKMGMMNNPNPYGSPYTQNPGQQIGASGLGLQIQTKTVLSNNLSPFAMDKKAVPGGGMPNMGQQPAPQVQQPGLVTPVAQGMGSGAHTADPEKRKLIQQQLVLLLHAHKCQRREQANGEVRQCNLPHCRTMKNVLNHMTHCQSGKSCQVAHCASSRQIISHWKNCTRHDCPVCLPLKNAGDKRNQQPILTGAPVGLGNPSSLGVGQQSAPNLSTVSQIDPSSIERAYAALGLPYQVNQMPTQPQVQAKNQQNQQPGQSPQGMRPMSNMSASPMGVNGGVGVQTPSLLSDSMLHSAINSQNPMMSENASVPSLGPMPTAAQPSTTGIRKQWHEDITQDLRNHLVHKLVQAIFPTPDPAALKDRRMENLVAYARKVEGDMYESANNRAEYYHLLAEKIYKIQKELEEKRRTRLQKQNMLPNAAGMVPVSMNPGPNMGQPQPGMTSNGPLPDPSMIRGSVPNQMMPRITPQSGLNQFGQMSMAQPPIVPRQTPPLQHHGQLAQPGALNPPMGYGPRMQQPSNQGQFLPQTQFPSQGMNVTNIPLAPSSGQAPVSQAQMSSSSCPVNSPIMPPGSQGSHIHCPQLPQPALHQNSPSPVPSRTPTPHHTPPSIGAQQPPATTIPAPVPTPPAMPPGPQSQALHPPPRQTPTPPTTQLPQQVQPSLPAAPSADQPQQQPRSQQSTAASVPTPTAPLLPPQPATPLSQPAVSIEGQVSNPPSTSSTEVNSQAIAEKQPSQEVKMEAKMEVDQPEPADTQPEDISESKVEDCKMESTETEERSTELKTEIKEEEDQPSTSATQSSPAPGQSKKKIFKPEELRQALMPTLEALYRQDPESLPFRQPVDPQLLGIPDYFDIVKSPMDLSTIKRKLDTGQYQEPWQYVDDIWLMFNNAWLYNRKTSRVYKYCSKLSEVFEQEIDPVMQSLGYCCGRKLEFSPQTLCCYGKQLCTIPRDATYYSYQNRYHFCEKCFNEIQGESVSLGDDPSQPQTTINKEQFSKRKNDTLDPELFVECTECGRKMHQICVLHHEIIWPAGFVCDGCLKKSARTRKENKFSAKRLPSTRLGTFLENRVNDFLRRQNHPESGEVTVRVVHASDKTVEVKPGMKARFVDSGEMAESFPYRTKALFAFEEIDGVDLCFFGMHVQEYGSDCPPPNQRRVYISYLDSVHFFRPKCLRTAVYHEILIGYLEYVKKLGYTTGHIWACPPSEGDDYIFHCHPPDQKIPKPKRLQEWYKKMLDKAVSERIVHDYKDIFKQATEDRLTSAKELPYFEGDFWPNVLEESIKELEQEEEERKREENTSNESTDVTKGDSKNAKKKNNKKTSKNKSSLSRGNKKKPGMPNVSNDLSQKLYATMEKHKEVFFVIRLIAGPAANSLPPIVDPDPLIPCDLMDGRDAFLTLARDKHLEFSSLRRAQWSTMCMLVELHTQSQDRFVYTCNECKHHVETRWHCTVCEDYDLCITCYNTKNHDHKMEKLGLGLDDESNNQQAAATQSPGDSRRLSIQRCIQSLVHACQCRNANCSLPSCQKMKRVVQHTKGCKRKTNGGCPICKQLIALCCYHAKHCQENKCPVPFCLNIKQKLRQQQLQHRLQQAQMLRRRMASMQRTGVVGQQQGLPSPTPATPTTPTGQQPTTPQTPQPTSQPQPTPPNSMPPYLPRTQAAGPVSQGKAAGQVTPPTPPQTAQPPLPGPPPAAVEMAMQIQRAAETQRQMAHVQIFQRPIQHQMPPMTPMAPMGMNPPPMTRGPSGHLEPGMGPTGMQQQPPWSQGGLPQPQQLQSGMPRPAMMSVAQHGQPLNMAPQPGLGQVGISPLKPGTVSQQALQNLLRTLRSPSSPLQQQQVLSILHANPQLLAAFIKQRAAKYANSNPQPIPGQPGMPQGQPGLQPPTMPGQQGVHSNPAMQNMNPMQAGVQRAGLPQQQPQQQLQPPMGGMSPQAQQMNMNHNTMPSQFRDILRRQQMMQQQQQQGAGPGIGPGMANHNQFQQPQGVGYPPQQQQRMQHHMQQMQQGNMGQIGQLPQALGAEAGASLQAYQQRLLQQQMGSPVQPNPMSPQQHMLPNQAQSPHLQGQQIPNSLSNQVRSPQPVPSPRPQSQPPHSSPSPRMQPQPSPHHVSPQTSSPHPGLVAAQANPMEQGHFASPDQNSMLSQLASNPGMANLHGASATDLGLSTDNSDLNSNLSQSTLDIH
T2 sequence (Q92831 whole entry): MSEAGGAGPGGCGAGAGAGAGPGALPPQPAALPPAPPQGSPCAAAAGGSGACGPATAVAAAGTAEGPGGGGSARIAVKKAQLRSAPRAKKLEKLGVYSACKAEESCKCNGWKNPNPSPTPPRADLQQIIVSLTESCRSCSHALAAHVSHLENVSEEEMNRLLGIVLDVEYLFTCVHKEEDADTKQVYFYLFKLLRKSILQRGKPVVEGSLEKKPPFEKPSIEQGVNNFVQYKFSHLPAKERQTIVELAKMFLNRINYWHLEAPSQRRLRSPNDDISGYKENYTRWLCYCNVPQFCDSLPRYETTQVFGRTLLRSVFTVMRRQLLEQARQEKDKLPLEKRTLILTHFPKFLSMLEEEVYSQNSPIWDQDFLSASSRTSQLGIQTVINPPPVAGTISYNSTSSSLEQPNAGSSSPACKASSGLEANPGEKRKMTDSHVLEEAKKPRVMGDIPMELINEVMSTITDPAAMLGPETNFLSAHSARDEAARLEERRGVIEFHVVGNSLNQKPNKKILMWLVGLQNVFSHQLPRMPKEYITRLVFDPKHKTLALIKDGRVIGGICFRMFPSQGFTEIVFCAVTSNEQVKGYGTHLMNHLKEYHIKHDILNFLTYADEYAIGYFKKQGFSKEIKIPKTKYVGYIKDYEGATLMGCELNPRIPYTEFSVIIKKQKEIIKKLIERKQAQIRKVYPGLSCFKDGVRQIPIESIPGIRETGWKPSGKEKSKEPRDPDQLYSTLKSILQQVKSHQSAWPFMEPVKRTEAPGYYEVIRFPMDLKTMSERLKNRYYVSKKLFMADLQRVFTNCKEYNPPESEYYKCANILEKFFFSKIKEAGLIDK

Row | SMILES | inhibition of p300 HAT activity, in words (p300 [1]; mixed histones) | IC50 (PCAF [2]) | inhibition of PCAF HAT activity, in words (PCAF [2]; mixed histones) | IC50 (p300 [1]; [6]) | selectivity in blocking p300 HAT activity (versus PCAF) (p300 [1]) | IC50 (p300 [1]; mixed calf histone substrates, read-out: IC50 of p300 acetyltransferase activity) | p300 HAT activity blocked (p300 [1]; [7]) | inhibition of naked DNA transcription (naked DNA transcription) | PCAF inhibition (nucleosome acetylation) (PCAF [3]) | p300 inhibition (nucleosome acetylation) (p300 [4]) | transcriptional activation from chromatin template in the presence of p300-PCAF mixtures ([5]; p300-PCAF mixtures, data not shown) | inhibition of p300 and acetyl-CoA dependent transcription activation from the chromatin template ([5]; p300 preincubated with 10 μM inhibitor) | inhibition with PCAF (PCAF [2]; [7])
1 | CC(C)(COP(=O)(O)OP(=O)(O)OC[C@H]1O[C@@H](n2cnc3c(N)ncnc32)[C@H](O)[C@@H]1OP(=O)(O)O)[C@@H](O)C(=O)NCCC(=O)NCCS [CoASH, reference compound] | Neither the H3-20 peptide (which lacked CoA attachment) nor CoASH itself were potent HAT inhibitors | > 20 µM | Neither the H3-20 peptide (which lacked CoA attachment) nor CoASH itself were potent HAT inhibitors |  |  |  |  |  |  |  |  |  | 
2 | CC(=O)NCC(=O)NCC(=O)N[C@@H](CCCCNC(=O)CSCCNC(=O)CCNC(=O)[C@H](O)C(C)(C)COP(=O)(O)OP(=O)(O)OC[C@H]1O[C@@H](n2cnc3c(N)ncnc32)[C@H](O)[C@@H]1OP(=O)(O)O)C(=O)N[C@@H](C)C(=O)N1CCC[C@H]1C(=O)N[C@@H](CCCNC(=N)N)C(=O)N[C@@H](CCCCN)C(N)=O [Compound H3-CoA-7] (Ac-GGK(CoASCH2CO)APRK-NH2) |  | > 20 µM | not achieved | > 30 µM |  |  |  |  |  |  |  |  | 
3 | CC(=O)N[C@@H](CCCCNC(=O)CSCCNC(=O)CCNC(=O)[C@H](O)C(C)(C)COP(=O)(O)OP(=O)(O)OC[C@H]1O[C@@H](n2cnc3c(N)ncnc32)[C@H](O)[C@@H]1OP(=O)(O)O)C(N)=O [Lys-CoA] |  | ~200 µM |  | ~0.5 µM and 0.5 µM | ~200 fold | ~0.5 µM | greater than 90% | 15-20% | less than 10% | greater than 90% | abolished transcriptional activation | completely abolished | less than 10%
